Legend:
[1] = test system: TEM-1-producing E. coli clinical isolate SF334; type: cell-based; conditions: E. coli isolate SF334 (TEM-1)
Procedure: Whole-cell suspensions of SF334 were prepared as described above. First, we confirmed β-lactamase activity in the TEM-1-producing clinical isolate by incubating 10^6 CFU of SF334 with the DETECT components (FIG. 4A), then collecting absorbance values at 405 nm after 45, 60, 120, and 180 min of incubation. […] The analogous experiment was performed with nitrocefin, where whole-cell suspensions of SF334 and SF505 were incubated with nitrocefin. As indicated in the literature, samples were incubated with nitrocefin for up to only 30 min to minimize background signal associated with non-selective hydrolysis^14.
Subsequent studies were performed to establish the detection limit of DETECT relative to nitrocefin, by serially diluting isolate SF334 in 100-fold increments. […]
(A) Schematic representation of the experiments performed with E. coli clinical isolates, where bacterial suspensions were incubated with DETECT components thiophenol-β-lac, disulfide-protected papain, and BAPA in a 96-well plate. Following 1 h of incubation, the sample wells were analyzed with a microplate reader and the absorbance at 405 nm was collected. […] (C) Plot displaying the signal outputs generated by DETECT in the presence of varying quantities of SF334, which was carried out to define the signal threshold of DETECT compared to the current standard, nitrocefin. […]

[2] = target: recombinant TEM-1 β-lactamase (Escherichia coli, UniProt P62593); conditions: recombinant TEM-1, absorbance 486 nm
Excerpt: To verify the targeting capacity and establish the amplification capacity of thiophenol-β-lac, we first targeted the β-lactamase TEM-1, which mediates resistance to β-lactam antibiotics, such as ampicillin We compared the sensitivity of DETECT against the standard chromogenic β-lactamase probe nitrocefin (FIG. 3)^19. Recombinant TEM-1 activity was quantified by measuring the formation of the hydrolytic chromogenic products from DETECT or nitrocefin in a time-dependent manner with a microplate reader (DETECT hydrolytic product=405 nm, and nitrocefin hydrolytic product=486 nm).
(B) Time-dependent plot of β-lactamase activity assay performed with DETECT, where varied concentrations of recombinant TEM-1 were incubated with the DETECT system in a 96-well plate for 90 min. The absorbance at 405 nm was collected in 5 min intervals and plotted against time. (C) Photograph of color change caused from DETECT amplification in wells where TEM-1 was present at increasing concentrations from right to left. The rightmost well is a control well where all the components were incubated in the absence of TEM-1. (D) Time-dependent biochemical experiment where varied concentrations of TEM-1 were incubated with the standard β-lactamase probe nitrocefin in a 96-well plate, and the respective absorbance values were collected on a microplate reader (486 nm). […]

[3] = test system: E. coli clinical isolates; assay: standard susceptibility testing (disc diffusion); on Ampicillin susceptibility: key: S, susceptible; R, resistant; on Cephalexin susceptibility: key: S, susceptible; R, resistant; type: cell-based; conditions: for standard susceptibility testing: E. coli isolate SF334 (blaTEM-1)
[4] = test system: K. pneumoniae clinical isolates; assay: standard susceptibility testing (disc diffusion); type: cell-based; further: key: S, susceptible; R, resistant
[5] = test system: E. coli isolated from CA-UTI urine samples; assay: susceptibility testing of E. coli cultured from CA-UTI urine samples; type: cell-based; conditions: 23 of 34 E. coli from CA-UTI samples
Procedure: In order to establish the threshold Δλ405 of DETECT, that delineates β-lactam-susceptible from β-lactam-resistant urine samples, we simultaneously analyzed urine samples by traditional microbiology techniques as a standard for comparison (raw Δλ405 of DETECT values shown in Table S1). As such, urine samples were cultured for identification of E. coli, and E. coli isolates were tested for susceptibility to ampicillin and cephalexin. Samples were separated for analyses based on susceptibility or resistance to these agents, and an average Δλ405 value was calculated for each group. The average Δλ405 values corresponding to β-lactam-resistant and β-lactam-susceptible samples are shown in FIG. 5B, where the average Δλ405 of samples defined by traditional susceptibility analyses as resistant to ampicillin or cephalexin was 1.026, and the average Δλ405 in samples containing susceptible E. coli was 0.2990 (p=0.00048, two-tailed t-test). Finally, the threshold value was defined as 0.616, three standard deviations greater than the average Δλ405 of β-lactam-susceptible isolates. Therefore, samples with Δλ405>0.616 were defined as “positive” by DETECT (or resistant to early-generation β-lactams), and samples with Δλ405<0.616 were defined as “negative” by DETECT (or susceptible to β-lactams), the latter of which would qualify for treatment with an early-generation β-lactam. […]

[6] = target: papain (Carica papaya, UniProt P00784); conditions: BAPA as papain substrate; cited from earlier work
[7] = E. coli isolate BE30, β-lactamase gene SHV-1
[8] = E. coli isolate BE115, β-lactamase gene OXA-1
[9] = E. coli isolate BE372, β-lactamase gene TEM-1 (1b)
[10] = E. coli isolate BE527, β-lactamase gene SHV-1
[11] = E. coli isolate BE1004, β-lactamase gene TEM-1 (1c)
[12] = E. coli isolate BE1173, β-lactamase gene TEM-1 (1b)
[13] = E. coli isolate BE1335, β-lactamase gene SHV-1
[14] = E. coli isolate BR2, β-lactamase gene KPC-2
[15] = E. coli isolate SF105, β-lactamase gene TEM-1
[16] = E. coli isolate SF141, β-lactamase gene CMY-2
[17] = E. coli isolate SF148, β-lactamase gene CTX-M-14
[18] = E. coli isolate SF207, β-lactamase gene CMY-2
[19] = E. coli isolate SF384, β-lactamase gene ND
[20] = E. coli isolate SF410, β-lactamase gene CTX-M-15
[21] = E. coli isolate SF487, β-lactamase gene CTX-M-14
[22] = E. coli isolate SF674, β-lactamase gene CTX-M-15
[23] = K. pneumoniae isolate ATCC 700603, β-lactamase gene SHV-18 (ESBL)
[24] = K. pneumoniae isolate BR1, β-lactamase gene SHV-185
[25] = K. pneumoniae isolate BR27, β-lactamase gene SHV-11
[26] = K. pneumoniae isolate BR28, β-lactamase gene KPC-2, SHV-11
[27] = K. pneumoniae isolate BR45, β-lactamase gene SHV-38/168
[28] = K. pneumoniae isolate BR50, β-lactamase gene SHV-62
[29] = K. pneumoniae isolate BR52, β-lactamase gene SHV-132
[30] = K. pneumoniae isolate BR313, β-lactamase gene SHV-83/187
[31] = K. pneumoniae isolate SF412, β-lactamase gene ND
[32] = K. pneumoniae isolate SF519, β-lactamase gene ND

Sequence of recombinant TEM-1 β-lactamase (P62593 24-286 limits assumed): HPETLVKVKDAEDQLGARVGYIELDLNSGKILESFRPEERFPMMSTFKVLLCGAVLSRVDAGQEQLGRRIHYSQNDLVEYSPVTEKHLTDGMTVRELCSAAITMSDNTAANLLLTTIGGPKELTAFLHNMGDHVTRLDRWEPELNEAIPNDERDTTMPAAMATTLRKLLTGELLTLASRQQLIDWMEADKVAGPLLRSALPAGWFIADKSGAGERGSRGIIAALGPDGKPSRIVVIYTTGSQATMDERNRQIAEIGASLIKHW
Sequence of papain (P00784 134-345): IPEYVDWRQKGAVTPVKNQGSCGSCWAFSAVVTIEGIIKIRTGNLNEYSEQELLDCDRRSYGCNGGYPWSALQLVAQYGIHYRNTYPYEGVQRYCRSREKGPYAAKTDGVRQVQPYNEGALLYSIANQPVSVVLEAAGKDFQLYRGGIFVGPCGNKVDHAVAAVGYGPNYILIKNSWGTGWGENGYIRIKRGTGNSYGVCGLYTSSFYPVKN

Question: For O=C(Cc1cccs1)N[C@@H]1C(=O)N2C(C(=O)O)=C(/C=C/c3ccc([N+](=O)[O-])cc3[N+](=O)[O-])CS[C@H]12 [nitrocefin], which “suspension of SF334 needed to identify β-lactamase activity above background” value [1] is on record?
Answer: 10^7 CFU/mL

Question: What about the “limit of detection of TEM-1” value [2] of the same compound?
Answer: 4 nM

Question: Which Cephalexin susceptibility [3, 7] does the source give for CC1=C(C(=O)O)N2C(=O)[C@@H](NC(=O)[C@H](N)c3ccccc3)[C@H]2SC1 [Cephalexin, cephalexin] here?
Answer: S

Question: What about the Cephalexin susceptibility [3, 8] of the same compound?
Answer: S

Question: And the Cephalexin susceptibility [3, 9]?
Answer: R

Question: And the Cephalexin susceptibility [3, 10]?
Answer: S

Question: And the Cephalexin susceptibility [3, 11]?
Answer: S

Question: What about the Cephalexin susceptibility [3, 12] of the same compound?
Answer: S

Question: What about the Cephalexin susceptibility [3, 13] of the same compound?
Answer: S

Question: What about the Cephalexin susceptibility [3, 14] of the same compound?
Answer: R

Question: And the Cephalexin susceptibility [3, 15]?
Answer: R

Question: And the Cephalexin susceptibility [3, 16]?
Answer: R

Question: What about the Cephalexin susceptibility [3, 17] of the same compound?
Answer: R

Question: And the Cephalexin susceptibility [3, 18]?
Answer: R

Question: And the standard susceptibility testing [3]?
Answer: resistance

Question: And the Cephalexin susceptibility [3, 19]?
Answer: S

Question: And the Cephalexin susceptibility [3, 20]?
Answer: R

Question: And the Cephalexin susceptibility [3, 21]?
Answer: R

Question: And the Cephalexin susceptibility [3, 22]?
Answer: R

Question: What about the Cephalexin susceptibility [4, 23] of the same compound?
Answer: R

Question: And the Cephalexin susceptibility [4, 24]?
Answer: S

Question: What about the Cephalexin susceptibility [4, 25] of the same compound?
Answer: S

Question: And the Cephalexin susceptibility [4, 26]?
Answer: R

Question: And the Cephalexin susceptibility [4, 27]?
Answer: S

Question: And the Cephalexin susceptibility [4, 28]?
Answer: S

Question: And the Cephalexin susceptibility [4, 29]?
Answer: S

Question: And the Cephalexin susceptibility [4, 30]?
Answer: S

Question: And the Cephalexin susceptibility [4, 31]?
Answer: S

Question: And the Cephalexin susceptibility [4, 32]?
Answer: S

Question: With CC1(C)S[C@@H]2[C@H](NC(=O)[C@H](N)c3ccccc3)C(=O)N2[C@H]1C(=O)O [Ampicillin, ampicillin] as the compound, how does the “E. coli isolates susceptible” value [5] read?
Answer: 68%

Question: What about the Ampicillin susceptibility [3, 7] of the same compound?
Answer: R

Question: What about the Ampicillin susceptibility [3, 8] of the same compound?
Answer: R

Question: What about the Ampicillin susceptibility [3, 9] of the same compound?
Answer: R

Question: And the Ampicillin susceptibility [3, 10]?
Answer: R

Question: What about the Ampicillin susceptibility [3, 11] of the same compound?
Answer: R

Question: And the Ampicillin susceptibility [3, 12]?
Answer: R

Question: What about the Ampicillin susceptibility [3, 13] of the same compound?
Answer: R

Question: And the Ampicillin susceptibility [3, 14]?
Answer: R

Question: And the Ampicillin susceptibility [3, 15]?
Answer: R

Question: And the Ampicillin susceptibility [3, 16]?
Answer: R

Question: And the Ampicillin susceptibility [3, 17]?
Answer: R

Question: And the Ampicillin susceptibility [3, 18]?
Answer: R

Question: What about the standard susceptibility testing [3] of the same compound?
Answer: resistance

Question: What about the Ampicillin susceptibility [3, 19] of the same compound?
Answer: S

Question: And the Ampicillin susceptibility [3, 20]?
Answer: R

Question: What about the Ampicillin susceptibility [3, 21] of the same compound?
Answer: R

Question: What about the Ampicillin susceptibility [3, 22] of the same compound?
Answer: R

Question: What about the Ampicillin susceptibility [4, 23] of the same compound?
Answer: R

Question: And the Ampicillin susceptibility [4, 24]?
Answer: R

Question: What about the Ampicillin susceptibility [4, 25] of the same compound?
Answer: R

Question: And the Ampicillin susceptibility [4, 26]?
Answer: R

Question: What about the Ampicillin susceptibility [4, 27] of the same compound?
Answer: R

Question: And the Ampicillin susceptibility [4, 28]?
Answer: R

Question: What about the Ampicillin susceptibility [4, 29] of the same compound?
Answer: R

Question: What about the Ampicillin susceptibility [4, 30] of the same compound?
Answer: R

Question: What about the Ampicillin susceptibility [4, 31] of the same compound?
Answer: S

Question: What about the Ampicillin susceptibility [4, 32] of the same compound?
Answer: S

Question: With N=C(N)NCCC[C@H](NC(=O)c1ccccc1)C(=O)Nc1ccc([N+](=O)[O-])cc1 [BAPA, N-benzoyl-L-arginine-p-nitroaniline] as the compound, how does the “KCAT value with papain” value [6] read?
Answer: 0.7 to 0.8 s⁻¹
